Measurements from patent publication US20100204135A1, “USE OF LVV-HEMORPHIN-6 AND OPTIONALLY AF12198 AS THERAPEUTIC AGENT(S)” (priority 2007, published 2010).
Where no end group is shown, it is not given here.

Tested on: drug-resistant Mycobacterium tuberculosis
Assay: Mycobacterium tuberculosis assay
Type: cell-based

Row | Substance | inhibition of the growth of Mycobacterium tuberculosis [%]
1 | Phe-Glu-Trp-Thr-Pro-Gly-Tyr-Trp-Gln-Pro-Tyr-Ala-Leu-Pro-Leu-OH (FEWTPGYWQPYALPL-OH) [Peptide 2] | 100
2 | Leu-Val-Val-Tyr-Pro-Trp-Thr-Gln-Arg-OH (LVVYPWTQR-OH) [Peptide 1] | 100
